According to patent US20120121540A1 (priority 2007, published 2012):

Experiment: HCV replicon assay (luciferase reporter, ET cell line)
Assay type: cell-based
Details: Hepatitis C virus, HCV replicon luciferase activity in ET cells
Outline: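 ET cells carry a stable luciferase-ubiquitin-neo/NS3-5B subgenomic HCV replicon with adaptive mutations. Compounds (0.1 nM to […], 0.5% DMSO) were added 24 h after plating, and luciferase was read 48-72 h later. EC50 came from 10-point 2-fold dilutions fitted to a Hill equation; TC50 was measured in parallel by WST-1.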

| SMILES | inhibition at 10 µM [%] |
| --- | --- |
| O=C(c1nc2c(C(F)(F)F)cc(-c3ccoc3)cn2c1Cl)N1CC=C(c2nccs2)CC1 [Compound 559, (3-Chloro-6-furan-3-yl-8-trifluoromethyl-imidazo[1,2-a]pyridine-2-yl)-(4-thiazol-2-yl-3,6-dihydro-2H-pyridin-1-yl)-methanone] | 99.1 |
| O=C(c1nc2c(C(F)(F)F)cc(-c3ccoc3)cn2c1Cl)N1CCC(c2ccc(F)c(F)c2)C1 (stereo not drawn) [Compound 420, (3-Chloro-6-furan-3-yl-8-trifluoromethyl-imidazo[1,2-a]pyridine-2-yl)-[3-(3,4-difluoro-phenyl)-pyrrolidin-1-yl]-methanone] | 93.6 |
| O=C(c1nc2c(C(F)(F)F)cc(-c3ccoc3)cn2c1Cl)N1CCC(c2cccc(F)c2)C1 (stereo not drawn) [Compound 334, (3-Chloro-6-furan-3-yl-8-trifluoromethyl-imidazo[1,2-a]pyridin-2-yl)-[3-(3-fluoro-phenyl)-pyrrolidin-1-yl]-methanone] | 96.1 |
| O=C(NCc1cccs1)c1nc2c(C(F)(F)F)cc(-c3ccncc3)cn2c1Cl [Compound 207, 3-Chloro-6-pyridin-4-yl-8-trifluoromethy-imidazo[1,2-a]pyridine-2-carboxylic acid (thiophen-2-ylmethyl)-amide] | 85.7 |
| O=S(=O)(NCc1cn2cc(-c3ccoc3)cc(C(F)(F)F)c2n1)c1ccccc1 [Compound 395] | 90.4 |
| O=C(NCc1cccs1)c1nc2c(C(F)(F)F)cc(-c3ccc(F)cc3)cn2c1Cl [Compound 178, 3-Chloro-6-(4-fluoro-phenyl)-8-trifluoromethyl-imidazo[1,2-a]pyridine-2-carboxylic acid (thiophen-2-ylmethyl)-amide] | 75.2 |
| O=C(NCc1ccc(Cl)s1)c1nn2c(C(F)(F)F)cc(-c3ccccc3)cc2c1Cl [Compound 123, 3-Chloro-5-phenyl-7-trifluoromethyl-pyrazolo[1,5-a]pyridine-2-carboxylic Acid (5-chloro-thiophen-2-ylmethyl)-amide] | 46.1 |
| O=C(NCCc1cccc(F)c1)c1nc2c(C(F)(F)F)cc(-c3ccoc3)cn2c1Cl [Compound 406, 3-Chloro-6-furan-3-yl-8-trifluoromethyl-imidazo[1,2-a]-pyridine-2-carboxylic acid [2-(3-fluoro-phenyl)-ethyl]-amide] | 82.5 |
| O=C(c1nc2c(C(F)(F)F)cc(-c3ccoc3)cn2c1Cl)N1CCC(c2ccccn2)C1 (stereo not drawn) [Compound 468, (3-Chloro-6-furan-3-yl-8-trifluoromethyl-imidazo[1,2-a]pyridin-2-yl)-(3-pyridin-2-yl-pyrrolidin-1-yl)-methanone] | 93.9 |
| O=C(c1nc2c(C(F)(F)F)cc(-c3ccoc3)cn2c1Cl)N1CC=C(c2ccccc2)CC1 [Compound 594, (3-Chloro-6-furan-3-yl-8-trifluoromethyl-imidazo[1,2-a]pyridin-2-yl)-(4-phenyl-3,6-dihydro-2H-pyridin-1-yl)-methanone] | 88.5 |
| O=C(c1nc2c(C(F)(F)F)cc(-c3cn[nH]c3)cn2c1Cl)N1CCC(c2ccccc2F)C1 (stereo not drawn) [Compound 257, [3-Chloro-6-(1H-pyrazol-4-yl)-8-trifluoromethyl-imidazo[1,2-a]pyridin-2-yl]-[3-(2-fluoro-phenyl)-pyrrolidin-1-yl]-methanone] | 92.2 |
| CC(C)Cn1cc(-c2cc(C(F)(F)F)c3nc(C(=O)NCc4cccs4)c(Cl)n3c2)cn1 [Compound 649, 3-Chloro-6-(1-isobutyl-1H-pyrazol-4-yl)-8-trifluoromethyl-imidazo[1,2-a]pyridine-2-carboxylic Acid(thiophen-2-ylmethyl)-amide] | 62.7 |
| O=C(c1nc2c(C(F)(F)F)cc(-c3ccco3)cn2c1Cl)N1CCCC1c1ccccc1 (stereo not drawn) [Compound 322, (3-Chloro-6-furan-2-yl-8-trifluoromethyl-imidazo[1,2-a]pyridin-2-yl)-(2-phenyl-pyrrolidin-1-yl)-methanone] | 78.7 |
| O=C(NCc1ccccc1)c1nc2c(C(F)(F)F)cc(-c3ccco3)cn2c1Cl [Compound 174, 3-Chloro-6-furan-2-yl-8-trifluoromethyl-imidazo[1,2-a]pyridine-2-carboxylic acid benzylamide] | 85.7 |
| O=C(c1nc2c(C(F)(F)F)cc(-c3cn[nH]c3)cn2c1Cl)N1CC=C(c2ccco2)C1 [Compound 444, [3-Chloro-6-(1H-pyrazol-4-yl)-8-(trifluoromethyl)imidazo[1,2-a]pyridin-2-yl][3-(furan-2-yl)-2,5-dihydro-1H-pyrrol-1-yl]methanone] | 98 |
| O=C(c1nc2c(C(F)(F)F)cc(-c3ccoc3)cn2c1Cl)N1CCC(c2ccccc2Cl)C1 (stereo not drawn) [Compound 341, (3-Chloro-6-furan-3-yl-8-trifluoromethyl-imidazo[1,2-a]pyridin-2-yl)-[3-(2-chloro-phenyl)-pyrrolidin-1-yl]-methanone] | 83.6 |
| O=C(NCc1cccs1)c1nn2c(Br)cc(-c3ccccc3)cc2c1Cl [Compound 112, 7-Bromo-3-chloro-5-phenyl-pyrazolo[1,5-a]pyridine-2-carboxylic Acid (thiophen-2-ylmethyl)-amide] | 74.2 |

| SMILES | inhibition at 10 µM [%] |
| --- | --- |
| O=C(c1nc2c(C(F)(F)F)cc(-c3ccoc3)cn2c1Cl)N1CC=C(c2cccc(F)c2)C1 [Compound 426, (3-Chloro-6-furan-3-yl-8-trifluoromethyl-imidazo[1,2-a]pyridin-2-yl)-[3-(3-fluoro-phenyl)-2,5-dihydro-pyrrol-1-yl]-methanone] | 98.2 |
| O=C(NCc1cccs1)c1nc2c(C(F)(F)F)cc(-c3ccccc3)nn2c1Br [Compound 250, 3-Bromo-6-phenyl-8-trifluoromethyl-imidazo[1,2-b]pyridazine-2-carboxylic Acid(thiophen-2-ylmethyl)-amide] | 92 |
| O=C(c1nc2c(C(F)(F)F)cc(-c3cn[nH]c3)cn2c1Cl)N1CC[C@H](c2ccccc2)C1 [Compound 466, [3-Chloro-6-(1H-pyrazol-4-yl)-8-trifluoromethyl-imidazo[1,2-a]pyridin-2-yl]-(3-(R)-phenyl-pyrrolidin-1-yl)-methanone] | 90.4 |
| Cc1noc(Cc2c(C(=O)N3CCC(c4ccc(F)cc4)C3)nc3c(C(F)(F)F)cc(-c4ccoc4)cn23)n1 (stereo not drawn) [Compound 243, [3-(4-Fluoro-phenyl)-pyrrolidin-1-yl]-[6-furan-3-yl-3-(3-methyl-[1,2,4]oxadiazol-5-ylmethyl)-8-trifluoromethyl-imidazo[1,2-a]pyridin-2-yl]-methanone] | 86.2 |
| O=C(NCCN1CCOCC1)[C@@H]1CN(C(=O)c2nc3c(C(F)(F)F)cc(-c4ccoc4)cn3c2Cl)C[C@H]1c1ccccc1 (stereo in doubt) [Compound 225] | 39.8 |
| COC(=O)Cc1c(C(=O)NCc2cccs2)nc2c(C(F)(F)F)cc(-c3ccoc3)cn12 [Compound 222, {6-Furan-3-yl-2-[(thiophen-2-ylmethyl)-carbamoyl]-8-trifluoromethyl-imidazo[1,2-a]pyridin-3-yl}-acetic Acid Methyl Ester] | 66.1 |
| O=C(NCc1cccs1)c1nc2c(C(F)(F)F)cc(-c3cc[nH]c3)cn2c1Cl [Compound 279, 3-Chloro-6-(1H-pyrrol-3-yl)-8-trifluoromethyl-imidazo[1,2-a]pyridine-2-carboxylic Acid(thiophen-2-ylmethyl)-amide] | 95.8 |
| O=C(c1nc2c(C(F)(F)F)cc(-c3ccco3)cn2c1Cl)N1CCN(c2ccccc2)CC1 [Compound 323, (3-Chloro-6-furan-2-yl-8-trifluoromethyl-imidazo[1,2-a]pyridin-2-yl)-(4-phenyl-piperazin-1-yl)-methanone] | 54.6 |
| O=C(c1nc2c(C(F)(F)F)cc(-c3ccoc3)cn2c1Cl)N1CCC(c2ccccc2F)CC1 [Compound 275, (3-chloro-6-furan-3-yl-8-trifluoromethyl-imidazo[1,2-a]pyridine-2-yl)-[4-(2-fluoro-phenyl)-piperidin-1-yl]-methanone] | 97.8 |
| O=C(NCc1cccs1)c1nc2c(-c3ccoc3)cc(-c3ccccc3)cn2c1Cl [Compound 263] | 60.3 |
| O=C(NCc1cccs1)c1nc2c(C(F)(F)F)cc(/C=C/c3ccccc3)cn2c1Cl [Compound 287, 3-Chloro-6-styryl-8-trifluoromethyl-imidazo[1,2-a]pyridine-2-carboxylic Acid (thiophen-2-ylmethyl)-amide] | 52.3 |
| O=C(NCc1cccs1)c1nc2c(C(F)(F)F)cc(-c3cccc(F)c3)cn2c1-c1cn[nH]c1 [Compound 301, 6-(3-Fluoro-phenyl)-3-(1H-pyrazol-4-yl)-8-trifluoromethyl-imidazo[1,2-a]pyridine-2-carboxylic Acid (thiophen-2-ylmethyl)-amide] | 79.9 |
| O=C(NCc1ccccn1)c1nc2c(C(F)(F)F)cc(-c3ccco3)cn2c1Cl [Compound 163, 3-Chloro-6-furan-2-yl-8-trifluoromethyl-imidazo[1,2-a]pyridine-2-carboxylic acid (pyridin-2-ylmethyl)-amide] | 95.4 |
| O=C(c1nc2c(C(F)(F)F)cc(-c3cn[nH]c3)cn2c1Cl)N1CC=C(c2cscn2)C1 [Compound 445, [3-Chloro-6-(1H-pyrazol-4-yl)-8-(trifluoromethyl)imidazol[1,2-a]pyridine-2-yl][3-(1,3-thiazol-4-yl)-2,5-dihydro-1H-pyrrol-1-yl]methanone] | 93.9 |
| O=C(Cc1cn2cc(-c3ccoc3)cc(C(F)(F)F)c2n1)NCc1cccs1 [Compound 650, 2-[6-(furan-3-yl)-8-(trifluoromethyl)imidazo[1,2-a]pyridin-2-yl]-N-(thiophen-2-ylmethyl)acetamide] | 65.7 |
| O=C(NCCc1ccccc1)c1cc2cc(-c3ccccc3)cc(I)n2n1 [Compound 130, 7-Iodo-5-phenyl-pyrazolo[1,5-a]pyridine-2-carboxylic Acid phenethyl-amide] | 32.3 |
